Reference: patent publication US10711036B2, “MALT1 inhibitors and uses thereof” (Cornell University, priority 2015, dated 2020)
pKi: −log10 of the molar value. Where a SMILES comes first, the peptide text is derived from it. [ ]: non-standard residue; d: D form. The star is where a group is joined. Hyp = O=C(O)[C@@H]1C[C@@H](O)CN1; Chg = N[C@H](C(=O)O)C1CCCCC1; NMeV = CN[C@H](C(=O)O)C(C)C; Pip = O=C(O)[C@@H]1CCCCN1; Cbz = O=C(OCc1ccccc1)*; CH2F = FC*

Legend:
MALT1 [1] = biological target: T1, MALT1 (Homo sapiens (Human), UniProt Q9UDY8); test: Inhibition constants (Ki) for inhibition of MALT1; format: biochemical; details: 100 nM MALT1 used for the assay
Experimental: For exemplary compounds of the disclosure, Ki for inhibition of MALT1 was measured (Table E11). A concentration of 100 nM MALT1 was used for the assay.

TMD8 = test: Maximum killing effect on TMD8; format: cell-based
Experimental: (§1) The maximum killing effects on cell-lines OCI-LY3, TMD8, and OCI-LY1 were also measured for select compounds at inhibitor concentration of 20 μM and 5 μM. TMD8 is another line of ABC type diffuse large-B cell lymphoma, while OCI-LY1 is a DLBCL line of the germinal center B-cell subtype.

OCI-LY1 = test: Maximum killing effect on OCI-LY1; format: cell-based
Experimental: as §1

MALT1 [2] = biological target: T1, MALT1; test: X-ray co-crystal structure of compound and MALT1; format: binding; details: 2.0 angstrom resolution
Experimental: Compound 101 was incubated with MALT1 to form a complex, and the complex was purified and crystallized for structure determination. X-ray diffraction data was collected, and the compound 101-MALT1 structure was solved in 2.0 angstrom resolution. […] Exemplary evidence for the formation of the covalent bond is the existence of continuous electron density from compound 101 to the Cys464 residue of MALT1. The electron density is 2Fo−Fc map contoured at 1.0 sigma.

OCI-LY3 [3] = test: Maximum killing effect on OCI-LY3; format: cell-based, human
Experimental: as §1

OCI-LY3 [4] = test: Cell growth inhibition assay (CellTiter-Glo, 96 hours), OCI-LY3; format: cell-based, human; details: OCI-LY3 cells, treated at t=0 and t=48 hours, ATP luminescence
Experimental: DLBCL cell lines were grown in exponential growth conditions during the 96 hours of treatment. Cells were treated twice: at t=0 and t=48 hours, and cell viability was determined by ATP quantification using a luminescent method ([…]-GLO, Promega, Madison, Wis.). Cell viability in drug-treated cells was normalized to vehicle controls (fractional viability) and results are given as 1-fractional viability.
Experiments were Performed in Triplicate.

RelB cleavage = test: Western blot for RelB cleavage in OCI-LY3 cells; format: cell-based, human; details: OCI-LY3 cells pretreated with inhibitor, then 5 μM MG-132 for 2 hours
Experimental: FIG. 1A. Western blots for RelB and MALT1 after 30 minutes pretreatment with indicated doses of compounds or vehicle, followed by proteasome inhibitor MG-132 (5 μM) treatment for 2 hours in OCI-LY3. clev=cleavage product of RelB.
FIG. 1B. Western blots for RelB with indicated doses of compounds or vehicle in OCI-LY3.
Western blot: OCI-Ly3 cells (a line of human diffuse large B-cell lymphoma (ABC type)) were pre-treated for 30 minutes with indicated doses of MALT1 inhibitors followed by a 2-hour treatment with proteasome inhibitor MG-132 at 5 μM. Protein was then extracted in a PBS-based lysis buffer containing 1% NP-40. Equal amounts of total protein (50 to 75 μg) were separated on sodium dodecyl sulfate-polyacrylamide gel electrophoresis (SDS-PAGE), and electrotransferred onto nitrocellulose membranes. Membranes were incubated with primary antibodies (MALT1, from Santa Cruz Biotechnologies, Santa Cruz, Calif.; RELB from Cell Signaling, Danvers, Mass., and α-Tubulin from Sigma), followed by secondary antibodies conjugated to horseradish peroxidase, which were detected by chemiluminescence (Pierce, Thermo Scientific, Rockford, Ill.).
OCI-LY3 cells were pretreated with the an inhibitor at the desired concentration and subsequently treated with 5 μM MG-132, a proteasome inhibitor, for 2 hours.

T1 sequence (Q9UDY8 whole entry): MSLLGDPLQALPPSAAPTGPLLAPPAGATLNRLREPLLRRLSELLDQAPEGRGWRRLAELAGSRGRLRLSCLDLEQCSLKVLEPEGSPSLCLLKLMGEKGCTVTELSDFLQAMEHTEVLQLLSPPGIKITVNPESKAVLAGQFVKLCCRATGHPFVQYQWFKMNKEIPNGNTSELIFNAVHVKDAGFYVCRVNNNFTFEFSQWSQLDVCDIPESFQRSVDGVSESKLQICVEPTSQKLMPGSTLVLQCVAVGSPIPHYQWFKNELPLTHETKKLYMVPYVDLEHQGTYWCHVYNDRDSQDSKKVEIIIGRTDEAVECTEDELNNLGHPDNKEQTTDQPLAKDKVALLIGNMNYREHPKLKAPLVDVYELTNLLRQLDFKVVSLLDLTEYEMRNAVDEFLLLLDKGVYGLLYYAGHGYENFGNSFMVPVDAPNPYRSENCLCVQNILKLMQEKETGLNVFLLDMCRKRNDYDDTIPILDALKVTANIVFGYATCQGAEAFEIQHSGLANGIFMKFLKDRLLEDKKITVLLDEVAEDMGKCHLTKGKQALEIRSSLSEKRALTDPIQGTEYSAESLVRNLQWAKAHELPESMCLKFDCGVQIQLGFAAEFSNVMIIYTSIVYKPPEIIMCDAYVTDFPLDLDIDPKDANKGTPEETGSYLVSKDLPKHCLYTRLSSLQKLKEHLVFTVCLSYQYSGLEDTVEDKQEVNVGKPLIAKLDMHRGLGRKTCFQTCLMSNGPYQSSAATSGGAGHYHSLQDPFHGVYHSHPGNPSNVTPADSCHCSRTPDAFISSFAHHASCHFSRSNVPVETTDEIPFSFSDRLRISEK

SMILES	pKi (MALT1 [1])	Maximum killing effect (TMD8; TMD8, 5 μM) [%]	Maximum killing effect (TMD8; TMD8, 20 μM) [%]	Maximum killing effect (OCI-LY1; OCI-LY1, 5 μM) [%]	Maximum killing effect (OCI-LY1; OCI-LY1, 20 μM) [%]	Covalent bond to Cys464 of MALT1 in co-crystal structure (MALT1 [2])	Maximum killing effect (OCI-LY3 [3]; OCI-LY3, 5 μM) [%]	Maximum killing effect (OCI-LY3 [3]; OCI-LY3, 20 μM) [%]	GI50 (OCI-LY3 [4]; Homo sapiens) [nM]	Inhibition of RelB cleavage (Western blot) (RelB cleavage)	GI50 (OCI-LY3 [4]) [nM]
CC(C)[C@H](NC(=O)OCc1ccccc1)C(=O)N1CCC[C@H]1C(=O)N[C@@H](CCCNC(=N)N)C(=O)CF [Compound 101, Benzyl ((S)-1-((S)-2-(((S)-1-fluoro-6-guanidino-2-oxohexan-3-yl)carbamoyl)pyrrolidin-1-yl)-3-methyl-1-oxobutan-2-yl)carbamate 2,2,2-trifluoroacetate] (Cbz-Val-Pro-Arg-CH2F)	7.40	50	63	<0	7	formation of a covalent bond	70	79	8520	–	–
N=C(N)NCCC[C@H](NC(=O)[C@@H]1CCCN1C(=O)[C@@H](NC(=O)OCc1ccccc1)C1CCCCC1)C(=O)CF [Compound 102] (Cbz-[Chg]-Pro-Arg-CH2F)	7.36	–	54	–	19	–	–	85	1450	–	–
CC(C)[C@H](NC(=O)OCc1ccccc1)C(=O)N1CCCC[C@H]1C(=O)N[C@@H](CCCNC(=N)N)C(=O)CF [Compound 107] (Cbz-Val-[Pip]-Arg-CH2F)	7.40	29	58	3	11	–	38	85	730	inhibition of RelB cleavage	–
CC(C)[C@H](NC(=O)OCc1ccccc1)C(=O)N1C[C@H](O)C[C@H]1C(=O)N[C@@H](CCCNC(=N)N)C(=O)CF [Compound 109] (Cbz-Val-[Hyp]-Arg-CH2F)	7.28	–	–	–	–	–	–	–	290	inhibition of RelB cleavage	–
CC(C)[C@@H](C(=O)N1CCC[C@H]1C(=O)N[C@@H](CCCNC(=N)N)C(=O)CF)N(C)C(=O)OCc1ccccc1 [Compound 112] (Cbz-[NMeV]-Pro-Arg-CH2F)	6.09	–	66	5	2	–	28	51	> 20000	inhibition of RelB cleavage	–
CC(C)[C@H](NC(=O)c1ccccc1Br)C(=O)N1CCC[C@H]1C(=O)N[C@@H](CCCNC(=N)N)C(=O)CF [Compound 114]	6.98	–	40	–	9	–	–	80	4240	–	–
CC(C)[C@H](NC(=O)c1cccc(Br)c1)C(=O)N1CCC[C@H]1C(=O)N[C@@H](CCCNC(=N)N)C(=O)CF [Compound 115]	7.39	–	64	–	15	–	–	84	530	–	–
CC(C)[C@H](NC(=O)c1ccc(Br)cc1)C(=O)N1CCC[C@H]1C(=O)N[C@@H](CCCNC(=N)N)C(=O)CF [Compound 116]	8.00	–	76	–	19	–	–	90	130	inhibition of RelB cleavage	–
CC(C)[C@H](NC(=O)C1CCCCC1)C(=O)N1CCC[C@H]1C(=O)N[C@@H](CCCNC(=N)N)C(=O)CF [Compound 120]	7.25	–	52	–	<0	–	–	81	940	–	–
Cc1cc(Br)ccc1C(=O)N[C@H](C(=O)N1CCC[C@H]1C(=O)N[C@@H](CCCNC(=N)N)C(=O)CF)C(C)C [Compound 183]	7.40	–	–	–	–	–	–	–	850	–	–
CC(C)C[C@H](NC(=O)OCc1ccccc1)C(=O)N1CCC[C@H]1C(=O)N[C@@H](CCCNC(=N)N)C(=O)CF [Compound 184] (Cbz-Leu-Pro-Arg-CH2F)	7.03	–	–	–	–	–	–	–	5490	–	–
CC(C)C[C@H](NC(=O)c1ccc(Br)cc1)C(=O)N1CCC[C@H]1C(=O)N[C@@H](CCCNC(=N)N)C(=O)CF [Compound 185]	6.74	–	–	–	–	–	–	–	1100	–	–
N=C(N)NCCC[C@H](NC(=O)[C@@H]1CCCN1C(=O)[C@H](Cc1ccc(C(F)(F)F)cc1)NC(=O)c1ccc(Br)cc1)C(=O)CF [Compound 186]	6.35	–	–	–	–	–	–	–	1370	–	–
CC(C)C[C@H](NC(=O)OCc1ccccc1)C(=O)N(C)[C@H](C(=O)N1CCC[C@H]1C(=O)N[C@@H](CCCNC(=N)N)C(=O)CF)C(C)C [Compound 203] (Cbz-L[NMeV]PR-CH2F)	–	–	59	–	3	–	–	79	–	inhibition of RelB cleavage	819
CC(C)[C@H](NC(=O)OCc1ccccc1)C(=O)N[C@@H](CCCNC(=N)N)C(=O)N1CCC[C@H]1C(=O)N[C@@H](CCCNC(=N)N)C(=O)CF [Z-VRPR-fmk, reference compound]	–	27	67	<0	<0	–	42	62	–	–	–
CN1CCCC(CN2c3ccccc3Sc3ccccc32)C1 (centres unmarked) [mepazine, reference compound]	–	32	99	6	82	–	35	97	–	–	–
